Data: ChEMBL document CHEMBL4507268 (2021)

Legend:
Settings in all cases: Compound concentration 1.0 uM
[1] = molecular target: T1, Serine/threonine-protein kinase TBK1 (Homo sapiens) (UniProt Q9UHD2)
T1 sequence (whole entry): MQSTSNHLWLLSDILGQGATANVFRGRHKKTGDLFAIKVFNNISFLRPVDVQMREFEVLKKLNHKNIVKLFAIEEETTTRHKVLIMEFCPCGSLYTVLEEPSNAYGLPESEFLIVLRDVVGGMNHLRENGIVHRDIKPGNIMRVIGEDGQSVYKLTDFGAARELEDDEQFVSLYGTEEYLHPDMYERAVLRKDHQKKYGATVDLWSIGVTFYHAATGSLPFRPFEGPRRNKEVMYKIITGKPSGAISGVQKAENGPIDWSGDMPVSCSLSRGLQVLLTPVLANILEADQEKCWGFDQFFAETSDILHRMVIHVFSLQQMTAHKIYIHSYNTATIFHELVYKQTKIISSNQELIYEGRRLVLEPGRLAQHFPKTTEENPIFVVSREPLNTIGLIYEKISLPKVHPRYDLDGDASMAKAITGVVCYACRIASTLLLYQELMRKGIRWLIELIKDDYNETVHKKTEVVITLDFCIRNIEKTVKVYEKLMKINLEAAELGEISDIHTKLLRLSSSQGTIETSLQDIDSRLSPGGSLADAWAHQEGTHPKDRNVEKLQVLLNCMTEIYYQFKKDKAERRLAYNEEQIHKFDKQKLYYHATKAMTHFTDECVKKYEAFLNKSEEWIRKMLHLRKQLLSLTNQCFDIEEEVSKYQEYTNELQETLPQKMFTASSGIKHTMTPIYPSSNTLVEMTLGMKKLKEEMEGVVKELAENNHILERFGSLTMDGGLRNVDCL

[2] = molecular target: RAC-beta serine/threonine-protein kinase (Homo sapiens) (UniProt P31751)
[3] = molecular target: Dual specificity tyrosine-phosphorylation-regulated kinase 3 (Homo sapiens) (UniProt O43781)
[4] = molecular target: SRSF protein kinase 2 (Homo sapiens) (UniProt P78362)
[5] = molecular target: T2, Homeodomain-interacting protein kinase 4 (Homo sapiens) (UniProt Q8NE63)
T2 sequence (whole entry): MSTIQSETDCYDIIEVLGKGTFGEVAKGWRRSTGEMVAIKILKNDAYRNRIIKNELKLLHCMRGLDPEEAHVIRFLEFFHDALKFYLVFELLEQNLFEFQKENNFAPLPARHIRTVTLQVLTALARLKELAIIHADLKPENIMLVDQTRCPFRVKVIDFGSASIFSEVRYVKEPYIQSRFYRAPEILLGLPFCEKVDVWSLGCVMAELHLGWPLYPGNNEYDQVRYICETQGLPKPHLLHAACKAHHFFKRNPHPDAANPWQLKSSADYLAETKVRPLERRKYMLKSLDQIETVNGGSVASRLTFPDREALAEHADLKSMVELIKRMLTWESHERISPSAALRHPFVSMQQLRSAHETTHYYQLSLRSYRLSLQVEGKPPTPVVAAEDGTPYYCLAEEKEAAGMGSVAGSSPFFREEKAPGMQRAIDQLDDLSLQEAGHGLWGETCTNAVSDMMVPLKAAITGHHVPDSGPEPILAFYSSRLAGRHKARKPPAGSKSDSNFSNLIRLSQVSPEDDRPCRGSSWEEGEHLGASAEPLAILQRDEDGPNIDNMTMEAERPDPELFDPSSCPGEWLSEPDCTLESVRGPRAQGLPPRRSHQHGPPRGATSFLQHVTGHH

[6] = molecular target: T3, cGMP-dependent protein kinase 2 (Homo sapiens) (UniProt Q13237)
T3 sequence (whole entry): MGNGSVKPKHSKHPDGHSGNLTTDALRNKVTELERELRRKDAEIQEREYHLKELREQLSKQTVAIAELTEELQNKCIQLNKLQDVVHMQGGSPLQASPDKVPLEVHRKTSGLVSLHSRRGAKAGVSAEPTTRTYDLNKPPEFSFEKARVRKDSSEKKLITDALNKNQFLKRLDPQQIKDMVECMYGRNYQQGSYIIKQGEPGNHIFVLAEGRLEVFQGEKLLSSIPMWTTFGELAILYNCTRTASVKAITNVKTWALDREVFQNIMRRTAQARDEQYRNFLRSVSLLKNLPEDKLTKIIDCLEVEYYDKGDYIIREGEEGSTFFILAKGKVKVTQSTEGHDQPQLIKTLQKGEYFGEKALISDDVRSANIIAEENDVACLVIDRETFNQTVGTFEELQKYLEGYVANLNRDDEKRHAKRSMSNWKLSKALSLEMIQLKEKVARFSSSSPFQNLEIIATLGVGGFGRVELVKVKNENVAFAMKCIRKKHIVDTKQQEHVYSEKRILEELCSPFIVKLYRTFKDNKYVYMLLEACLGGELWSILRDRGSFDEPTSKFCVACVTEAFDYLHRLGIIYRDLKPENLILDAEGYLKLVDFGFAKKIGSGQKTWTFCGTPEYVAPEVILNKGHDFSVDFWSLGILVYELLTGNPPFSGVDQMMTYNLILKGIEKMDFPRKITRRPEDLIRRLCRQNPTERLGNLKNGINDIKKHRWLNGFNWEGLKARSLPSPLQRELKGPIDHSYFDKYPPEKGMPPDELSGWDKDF

[7] = molecular target: Serine/threonine-protein kinase PLK2 (Homo sapiens) (UniProt Q9NYY3)
[8] = molecular target: Death-associated protein kinase 2 (Homo sapiens) (UniProt Q9UIK4)
[9] = molecular target: Serine/threonine-protein kinase pim-1 (Homo sapiens) (UniProt P11309)
[10] = molecular target: Tyrosine-protein kinase ABL1 (Homo sapiens) (UniProt P00519)
[11] = molecular target: CDK18/Cyclin Y (Homo sapiens) (UniProt Q07002+Q8ND76)

Measured: % residual kinase activity

Sequence of SRSF protein kinase 2 (Homo sapiens) (P78362 whole entry, looked up): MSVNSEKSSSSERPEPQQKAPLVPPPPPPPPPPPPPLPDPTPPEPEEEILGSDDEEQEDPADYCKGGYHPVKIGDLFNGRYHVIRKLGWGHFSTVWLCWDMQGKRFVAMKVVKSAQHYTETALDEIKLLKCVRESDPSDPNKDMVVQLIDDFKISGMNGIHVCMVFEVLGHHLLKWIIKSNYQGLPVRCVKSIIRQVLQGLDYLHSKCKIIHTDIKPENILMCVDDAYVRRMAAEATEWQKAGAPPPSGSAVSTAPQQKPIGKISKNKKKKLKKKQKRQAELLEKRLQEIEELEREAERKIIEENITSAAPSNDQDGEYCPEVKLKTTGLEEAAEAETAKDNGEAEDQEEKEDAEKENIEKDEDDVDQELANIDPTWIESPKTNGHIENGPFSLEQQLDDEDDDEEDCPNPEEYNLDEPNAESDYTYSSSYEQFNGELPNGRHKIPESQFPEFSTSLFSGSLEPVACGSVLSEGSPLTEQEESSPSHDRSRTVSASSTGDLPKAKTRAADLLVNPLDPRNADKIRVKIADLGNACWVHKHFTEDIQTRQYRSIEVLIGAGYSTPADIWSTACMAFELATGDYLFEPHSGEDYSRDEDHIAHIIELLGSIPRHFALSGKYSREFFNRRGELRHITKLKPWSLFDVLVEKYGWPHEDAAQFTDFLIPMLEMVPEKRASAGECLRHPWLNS
Sequence of RAC-beta serine/threonine-protein kinase (Homo sapiens) (P31751 whole entry): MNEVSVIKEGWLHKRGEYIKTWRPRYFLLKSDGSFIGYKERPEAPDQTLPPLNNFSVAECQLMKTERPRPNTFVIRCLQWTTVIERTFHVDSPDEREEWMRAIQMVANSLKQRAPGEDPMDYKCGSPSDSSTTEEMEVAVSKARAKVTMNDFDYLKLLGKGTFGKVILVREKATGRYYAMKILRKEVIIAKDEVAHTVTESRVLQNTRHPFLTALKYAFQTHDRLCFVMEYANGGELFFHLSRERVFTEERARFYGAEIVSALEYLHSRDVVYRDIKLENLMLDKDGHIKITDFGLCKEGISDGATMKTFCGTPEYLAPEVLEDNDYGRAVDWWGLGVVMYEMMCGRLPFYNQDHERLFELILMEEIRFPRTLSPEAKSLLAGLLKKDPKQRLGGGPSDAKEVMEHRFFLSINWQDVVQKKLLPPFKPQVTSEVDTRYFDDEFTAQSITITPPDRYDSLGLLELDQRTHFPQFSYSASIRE
Sequence of Death-associated protein kinase 2 (Homo sapiens) (Q9UIK4 whole entry, looked up): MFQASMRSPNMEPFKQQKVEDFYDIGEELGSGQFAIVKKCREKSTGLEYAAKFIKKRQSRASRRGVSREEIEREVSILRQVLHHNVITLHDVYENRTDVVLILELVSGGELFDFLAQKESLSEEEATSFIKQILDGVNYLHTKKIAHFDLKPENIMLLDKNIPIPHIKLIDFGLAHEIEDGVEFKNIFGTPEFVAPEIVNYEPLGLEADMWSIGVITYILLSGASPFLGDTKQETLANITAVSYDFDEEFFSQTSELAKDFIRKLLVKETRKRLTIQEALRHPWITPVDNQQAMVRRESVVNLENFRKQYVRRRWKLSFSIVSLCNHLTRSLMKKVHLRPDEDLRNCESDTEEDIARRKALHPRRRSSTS
Sequence of Serine/threonine-protein kinase pim-1 (Homo sapiens) (P11309 whole entry, looked up): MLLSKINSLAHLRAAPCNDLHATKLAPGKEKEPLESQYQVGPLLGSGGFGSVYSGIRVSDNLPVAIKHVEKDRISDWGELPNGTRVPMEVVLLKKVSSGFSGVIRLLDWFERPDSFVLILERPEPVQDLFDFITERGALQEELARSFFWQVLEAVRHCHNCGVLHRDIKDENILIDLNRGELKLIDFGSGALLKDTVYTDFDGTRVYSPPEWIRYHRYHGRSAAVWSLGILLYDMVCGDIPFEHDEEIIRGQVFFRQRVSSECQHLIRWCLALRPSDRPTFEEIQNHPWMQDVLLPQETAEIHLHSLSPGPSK
Sequence of Serine/threonine-protein kinase PLK2 (Homo sapiens) (Q9NYY3 whole entry, looked up): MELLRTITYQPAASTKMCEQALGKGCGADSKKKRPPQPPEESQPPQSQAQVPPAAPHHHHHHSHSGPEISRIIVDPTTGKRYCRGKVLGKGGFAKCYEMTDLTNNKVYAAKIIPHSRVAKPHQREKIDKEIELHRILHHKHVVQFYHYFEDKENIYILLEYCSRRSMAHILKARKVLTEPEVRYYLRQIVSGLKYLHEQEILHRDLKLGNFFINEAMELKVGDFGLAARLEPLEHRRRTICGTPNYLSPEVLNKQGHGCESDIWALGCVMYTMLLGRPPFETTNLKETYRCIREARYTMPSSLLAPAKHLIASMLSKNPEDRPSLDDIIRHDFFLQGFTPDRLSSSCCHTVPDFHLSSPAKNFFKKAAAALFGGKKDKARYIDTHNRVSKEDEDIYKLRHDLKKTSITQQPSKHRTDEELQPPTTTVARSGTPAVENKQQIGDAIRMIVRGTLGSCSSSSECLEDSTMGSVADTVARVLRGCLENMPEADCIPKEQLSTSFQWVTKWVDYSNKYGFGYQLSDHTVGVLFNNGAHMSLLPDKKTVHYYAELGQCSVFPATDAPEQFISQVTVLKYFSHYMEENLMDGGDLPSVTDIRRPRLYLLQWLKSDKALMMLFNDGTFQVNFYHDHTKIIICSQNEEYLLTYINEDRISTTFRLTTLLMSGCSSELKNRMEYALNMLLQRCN
Sequence of Tyrosine-protein kinase ABL1 (Homo sapiens) (P00519 whole entry): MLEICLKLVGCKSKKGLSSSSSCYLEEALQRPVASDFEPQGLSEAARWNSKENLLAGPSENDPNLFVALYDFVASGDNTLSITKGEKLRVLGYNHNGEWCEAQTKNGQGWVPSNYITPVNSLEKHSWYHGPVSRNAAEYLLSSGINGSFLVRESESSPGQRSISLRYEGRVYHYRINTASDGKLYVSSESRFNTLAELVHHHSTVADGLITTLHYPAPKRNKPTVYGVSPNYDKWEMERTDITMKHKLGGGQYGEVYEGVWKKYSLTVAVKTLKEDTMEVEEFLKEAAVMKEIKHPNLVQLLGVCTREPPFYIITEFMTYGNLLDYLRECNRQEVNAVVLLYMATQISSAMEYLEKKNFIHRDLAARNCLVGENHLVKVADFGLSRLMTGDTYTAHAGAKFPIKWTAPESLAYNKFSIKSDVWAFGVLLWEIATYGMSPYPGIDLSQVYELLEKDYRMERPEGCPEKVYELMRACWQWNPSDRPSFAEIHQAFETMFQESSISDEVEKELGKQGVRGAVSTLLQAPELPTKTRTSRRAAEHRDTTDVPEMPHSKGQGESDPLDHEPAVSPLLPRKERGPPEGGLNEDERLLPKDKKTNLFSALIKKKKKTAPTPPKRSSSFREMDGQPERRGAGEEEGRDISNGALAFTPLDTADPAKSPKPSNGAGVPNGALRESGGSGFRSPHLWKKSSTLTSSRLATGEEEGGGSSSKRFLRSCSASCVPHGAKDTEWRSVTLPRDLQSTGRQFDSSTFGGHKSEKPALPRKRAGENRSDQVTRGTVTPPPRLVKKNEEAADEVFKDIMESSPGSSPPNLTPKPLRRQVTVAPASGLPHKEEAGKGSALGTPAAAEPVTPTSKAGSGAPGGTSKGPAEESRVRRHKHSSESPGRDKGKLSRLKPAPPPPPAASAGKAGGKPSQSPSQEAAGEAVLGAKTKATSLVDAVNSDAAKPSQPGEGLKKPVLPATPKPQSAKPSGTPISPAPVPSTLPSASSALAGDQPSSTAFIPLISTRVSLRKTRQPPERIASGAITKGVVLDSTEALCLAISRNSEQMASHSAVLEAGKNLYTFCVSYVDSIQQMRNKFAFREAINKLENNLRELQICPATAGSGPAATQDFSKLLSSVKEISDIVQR
Sequence of Dual specificity tyrosine-phosphorylation-regulated kinase 3 (Homo sapiens) (O43781 whole entry): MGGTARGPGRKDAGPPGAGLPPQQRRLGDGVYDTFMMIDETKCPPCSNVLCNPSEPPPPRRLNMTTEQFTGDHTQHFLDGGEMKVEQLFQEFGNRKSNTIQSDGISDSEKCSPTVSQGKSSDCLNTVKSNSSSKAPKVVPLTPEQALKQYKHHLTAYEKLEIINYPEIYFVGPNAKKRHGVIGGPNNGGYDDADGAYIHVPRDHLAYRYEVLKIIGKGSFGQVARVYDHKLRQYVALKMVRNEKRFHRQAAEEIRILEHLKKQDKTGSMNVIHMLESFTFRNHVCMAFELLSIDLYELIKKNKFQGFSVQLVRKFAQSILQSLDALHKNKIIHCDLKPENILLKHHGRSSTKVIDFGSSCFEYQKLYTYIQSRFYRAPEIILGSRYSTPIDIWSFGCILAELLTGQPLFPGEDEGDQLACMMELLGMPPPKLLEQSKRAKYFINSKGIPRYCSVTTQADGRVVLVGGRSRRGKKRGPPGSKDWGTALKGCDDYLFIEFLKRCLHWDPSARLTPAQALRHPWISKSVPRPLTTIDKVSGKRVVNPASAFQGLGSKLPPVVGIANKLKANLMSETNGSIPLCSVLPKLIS

CN1CCN(c2cnc3c(C4CCN(C(=O)c5ccc(OC(F)(F)F)cc5N)CC4)ncnc3c2)CC1 [BAY-885]
inactive: [1] 118% | [2] 109% | [3] 103% | [4] 99% | [5] 94% | [6] 127% | [7] 119% | [8] 99% | [9] 111% | [10] 100% | [11] 100%
